What was measured:
Assay type in all cases: functional, cell-based; call rule not given here
[1] = target: T1, Muscarinic acetylcholine receptor M2 (Homo sapiens) (UniProt P08172); assay: Agonist activity at human muscarinic M2 receptor expressed in CHO cells after 30 mins by GTPgamma35S binding assay relative to acetylcholine
T1 sequence (whole entry): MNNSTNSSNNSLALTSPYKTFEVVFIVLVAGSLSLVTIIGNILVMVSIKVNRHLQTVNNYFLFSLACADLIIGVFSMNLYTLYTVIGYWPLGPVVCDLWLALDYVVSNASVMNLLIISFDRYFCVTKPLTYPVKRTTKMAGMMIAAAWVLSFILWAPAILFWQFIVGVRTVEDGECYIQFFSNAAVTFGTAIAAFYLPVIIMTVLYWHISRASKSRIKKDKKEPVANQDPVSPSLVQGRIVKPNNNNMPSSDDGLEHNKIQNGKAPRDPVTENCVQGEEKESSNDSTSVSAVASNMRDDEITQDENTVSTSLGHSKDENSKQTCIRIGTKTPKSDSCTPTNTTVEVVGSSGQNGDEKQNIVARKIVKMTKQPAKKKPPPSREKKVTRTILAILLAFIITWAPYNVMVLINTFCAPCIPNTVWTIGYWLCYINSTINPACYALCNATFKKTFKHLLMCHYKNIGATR

[2] = target: T2, Muscarinic acetylcholine receptor M5 (Homo sapiens) (UniProt P08912); assay: Agonist activity at human muscarinic M5 receptor expressed in CHO cells after 30 mins by GTPgamma35S binding assay relative to acetylcholine
T2 sequence (whole entry): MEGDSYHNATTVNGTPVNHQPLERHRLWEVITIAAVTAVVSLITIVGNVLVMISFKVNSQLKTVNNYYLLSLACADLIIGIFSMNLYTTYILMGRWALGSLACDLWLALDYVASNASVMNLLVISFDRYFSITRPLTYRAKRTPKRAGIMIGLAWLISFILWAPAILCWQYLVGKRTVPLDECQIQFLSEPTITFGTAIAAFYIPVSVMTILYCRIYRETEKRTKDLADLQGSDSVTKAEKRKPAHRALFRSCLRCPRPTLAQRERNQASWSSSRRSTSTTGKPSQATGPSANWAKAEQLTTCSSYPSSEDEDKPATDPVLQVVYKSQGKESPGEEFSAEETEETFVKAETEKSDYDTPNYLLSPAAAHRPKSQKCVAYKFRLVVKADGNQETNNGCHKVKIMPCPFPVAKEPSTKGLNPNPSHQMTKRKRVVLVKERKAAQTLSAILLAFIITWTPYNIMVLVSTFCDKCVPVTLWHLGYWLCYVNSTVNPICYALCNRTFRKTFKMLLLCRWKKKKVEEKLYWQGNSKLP

[3] = target: T3, Muscarinic acetylcholine receptor M3 (Homo sapiens, UniProt P20309); assay: Agonist activity at human muscarinic M3 receptor expressed in CHO cells after 30 mins by GTPgamma35S binding assay relative to acetylcholine
Target sequence in this assay (P20309 whole entry, looked up): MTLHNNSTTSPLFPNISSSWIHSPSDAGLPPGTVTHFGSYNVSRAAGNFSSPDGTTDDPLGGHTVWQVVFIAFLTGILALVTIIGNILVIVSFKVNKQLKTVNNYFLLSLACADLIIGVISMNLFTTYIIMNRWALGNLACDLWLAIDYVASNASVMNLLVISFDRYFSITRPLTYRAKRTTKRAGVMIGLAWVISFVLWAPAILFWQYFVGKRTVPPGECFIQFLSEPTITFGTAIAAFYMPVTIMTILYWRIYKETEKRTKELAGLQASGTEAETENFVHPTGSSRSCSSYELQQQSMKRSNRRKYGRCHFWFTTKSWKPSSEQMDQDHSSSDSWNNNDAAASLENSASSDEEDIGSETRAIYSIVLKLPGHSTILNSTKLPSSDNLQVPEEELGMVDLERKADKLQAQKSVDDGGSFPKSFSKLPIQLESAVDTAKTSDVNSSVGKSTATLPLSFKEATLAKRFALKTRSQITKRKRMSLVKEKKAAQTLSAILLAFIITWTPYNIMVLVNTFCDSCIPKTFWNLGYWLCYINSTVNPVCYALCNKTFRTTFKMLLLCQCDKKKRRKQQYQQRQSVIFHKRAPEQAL

[4] = target: T4, Muscarinic acetylcholine receptor M4 (Homo sapiens) (UniProt P08173); assay: Agonist activity at human muscarinic M4 receptor expressed in CHO cells after 30 mins by GTPgamma35S binding assay relative to acetylcholine
T4 sequence (whole entry): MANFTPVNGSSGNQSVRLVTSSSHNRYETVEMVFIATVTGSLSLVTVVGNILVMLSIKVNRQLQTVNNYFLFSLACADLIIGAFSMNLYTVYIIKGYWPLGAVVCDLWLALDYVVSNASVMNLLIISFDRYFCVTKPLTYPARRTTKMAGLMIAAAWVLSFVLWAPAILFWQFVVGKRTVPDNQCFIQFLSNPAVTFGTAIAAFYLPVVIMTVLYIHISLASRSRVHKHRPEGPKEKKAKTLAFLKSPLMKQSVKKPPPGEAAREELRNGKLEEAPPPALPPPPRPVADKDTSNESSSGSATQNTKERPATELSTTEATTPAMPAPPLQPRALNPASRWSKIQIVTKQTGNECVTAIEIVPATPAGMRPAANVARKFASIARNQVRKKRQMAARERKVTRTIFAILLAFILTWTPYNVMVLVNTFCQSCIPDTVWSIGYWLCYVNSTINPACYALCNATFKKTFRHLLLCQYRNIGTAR

[5] = target: T5, Muscarinic acetylcholine receptor M5 (Homo sapiens, UniProt P08912); assay: Agonist activity at human muscarinic M5 receptor expressed in CHO cells after 30 mins by GTPgamma35S binding assay
T5 sequence (P08912 whole entry): T2 sequence (whole entry)

[6] = target: T3, Muscarinic acetylcholine receptor M3; assay: Agonist activity at human muscarinic M3 receptor expressed in CHO cells after 30 mins by GTPgamma35S binding assay
Target sequence in this assay (P20309 whole entry): as the sequence (P20309 whole entry, looked up) above

[7] = target: T1, Muscarinic acetylcholine receptor M2 (Homo sapiens); assay: Agonist activity at human muscarinic M2 receptor expressed in CHO cells after 30 mins by GTPgamma35S binding assay relative to oxotremorine-M
[8] = target: T4, Muscarinic acetylcholine receptor M4 (Homo sapiens); assay: Agonist activity at human muscarinic M4 receptor expressed in CHO cells after 30 mins by GTPgamma35S binding assay relative to oxotremorine-M
[9] = target: T6, Muscarinic acetylcholine receptor M1 (Homo sapiens, UniProt P11229); assay: Agonist activity at human muscarinic M1 receptor expressed in CHO cells after 30 mins by GTPgamma35S binding assay
T6 sequence (P11229 whole entry): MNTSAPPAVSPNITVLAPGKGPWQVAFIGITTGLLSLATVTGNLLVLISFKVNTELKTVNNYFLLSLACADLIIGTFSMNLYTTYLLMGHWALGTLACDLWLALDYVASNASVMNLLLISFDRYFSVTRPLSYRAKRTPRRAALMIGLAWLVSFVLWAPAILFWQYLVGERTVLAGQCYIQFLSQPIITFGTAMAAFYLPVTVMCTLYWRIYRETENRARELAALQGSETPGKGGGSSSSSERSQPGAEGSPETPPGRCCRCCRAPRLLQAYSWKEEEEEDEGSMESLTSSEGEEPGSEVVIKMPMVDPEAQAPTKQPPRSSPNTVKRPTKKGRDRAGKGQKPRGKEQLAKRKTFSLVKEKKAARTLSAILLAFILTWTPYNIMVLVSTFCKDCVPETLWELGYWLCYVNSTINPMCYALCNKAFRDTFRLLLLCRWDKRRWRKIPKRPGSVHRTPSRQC

[10] = target: T7, Muscarinic acetylcholine receptor M1 (Homo sapiens) (UniProt P11229); assay: Agonist activity at human muscarinic M1 receptor expressed in CHO cells after 30 mins by GTPgamma35S binding assay relative to oxotremorine-M
T7 sequence (whole entry): T6 sequence (P11229 whole entry)

[11] = target: T8, Muscarinic acetylcholine receptor M2 (Homo sapiens, UniProt P08172); assay: Agonist activity at human muscarinic M2 receptor expressed in CHO cells after 30 mins by GTPgamma35S binding assay
T8 sequence (P08172 whole entry): T1 sequence (whole entry)

[12] = target: T9, Muscarinic acetylcholine receptor M4 (Homo sapiens, UniProt P08173); assay: Agonist activity at human muscarinic M4 receptor expressed in CHO cells after 30 mins by GTPgamma35S binding assay
T9 sequence (P08173 whole entry): T4 sequence (whole entry)

SMILES | Efficacy [1] | Efficacy [2] | Efficacy [3] | Efficacy [4] | EC50 ([5]; cho) | EC50 ([6]; cho) | Efficacy [7] | Efficacy [8] | EC50 [9] | Efficacy [10] | EC50 ([5]; read-out: EC50) | EC50 [11] | EC50 [12] | EC50 ([6]; read-out: EC50)
CCCCCCOc1nsnc1C1=CCCN(C)C1 | 83.5% | 25.9% | < 20% | 48.7% |  |  |  |  |  |  |  |  |  | 
COc1ccc(CN/C(C)=N/c2ccc3c(c2)[C@@H](NC(=O)c2ccc(Br)cc2)[C@H](O)C3)cc1 |  |  |  |  | Not Active | Not Active | < 20% | < 20% | 0.837 µM | 32.1% |  |  |  | 
C#CCO[C@H]1CN2CCC1CC2 [TALSACLIDINE] | 94.4% | 23.7% | 26.1% | 22.2% |  |  |  |  | 0.82 µM |  | 0.422 µM | 0.849 µM | 0.844 µM | 2.7 µM
C/C(=N\c1ccc2c(c1)[C@@H](NC(=O)c1ccc(Br)cc1)[C@H](O)C2)NCCc1ccc(F)cc1 |  |  |  |  | Not Active | Not Active | 38.5% | < 20% | 0.183 µM | 90.6% |  | 0.211 µM |  | 
C/C(=N\c1ccc2c(c1)[C@@H](NC(=O)c1ccc(C(F)(F)F)cc1)[C@H](O)C2)N(C)Cc1ccc(F)cc1 |  |  |  |  | Not Active | Not Active | 25.4% | 30.8% | 0.036 µM | 106% |  | 0.172 µM | 0.393 µM | 
COc1cccc(CN/C(C)=N/c2ccc3c(c2)[C@@H](NC(=O)c2ccc(Br)cc2)[C@H](O)C3)c1 |  |  |  |  | Not Active | Not Active | < 20% | < 20% | 0.198 µM | 60% |  |  |  | 
COc1ccc(N/C(C)=N/c2ccc3c(c2)[C@@H](NC(=O)c2ccc(Br)cc2)[C@H](O)C3)cc1 |  |  |  |  | Not Active | Not Active | < 20% | < 20% | 0.105 µM | 35.3% |  |  |  | 
C/C(=N\c1ccc2c(c1)[C@@H](NC(=O)c1ccc(Br)cc1)[C@H](O)C2)NCc1ccccc1F |  |  |  |  | Not Active | Not Active | 33.6% | 25.7% | 0.087 µM | 78.5% |  | 0.118 µM | 0.227 µM | 
C/C(=N\c1ccc2c(c1)[C@@H](NC(=O)c1ccc(C)cc1)[C@H](O)C2)N(C)Cc1ccc(F)cc1 |  |  |  |  | Not Active | Not Active | 45.1% | 41.5% | 0.0495 µM | 106% |  | 0.0654 µM | 0.235 µM | 
CO/N=C(\C#N)[C@H]1CN2CCC1CC2 [SABCOMELINE] | 87.7% | 38.9% | 28.3% | 21.3% |  |  |  |  | 0.0636 µM |  | 0.123 µM | 0.0621 µM | 0.214 µM | 0.117 µM
C/C(=N\c1ccc2c(c1)[C@@H](NC(=O)c1ccc(Cl)cc1)[C@H](O)C2)N(C)Cc1ccc(F)cc1 |  |  |  |  | Not Active | Not Active | 45% | 42.8% | 0.031 µM | 112% |  | 0.0655 µM | 0.405 µM | 
C/C(=N\c1ccc2c(c1)[C@@H](NC(=O)c1ccc(Br)cc1)[C@H](O)C2)NCc1cccc(F)c1 |  |  |  |  | Not Active | Not Active | 26.6% | 33.4% | 0.0484 µM | 94% |  | 0.435 µM | 0.355 µM | 
CC(=O)OCC[N+](C)(C)C |  | 110% | 117% | 93.4% |  |  |  |  |  |  |  |  |  | 
O=C(N[C@@H]1c2cc(/N=C(/Nc3ccc(F)cc3)C(F)(F)F)ccc2C[C@H]1O)c1ccc(Br)cc1 |  |  |  |  | Not Active | Not Active | < 20% | < 20% |  | < 20% |  |  |  | 
COc1ccc(CCN/C(C)=N/c2ccc3c(c2)[C@@H](NC(=O)c2ccc(Br)cc2)[C@H](O)C3)cc1 |  |  |  |  | Not Active | Not Active | 38.9% | 29.9% | 0.426 µM | 84.5% |  | 0.411 µM | 1.36 µM | 
COc1ccccc1CN/C(C)=N/c1ccc2c(c1)[C@@H](NC(=O)c1ccc(Br)cc1)[C@H](O)C2 |  |  |  |  | Not Active | Not Active | < 20% | < 20% | 0.572 µM | 71.5% |  |  |  | 
C/C(=N\c1ccc2c(c1)[C@@H](NC(=O)c1ccc(Br)cc1)[C@H](O)C2)N(C)Cc1ccc(F)cc1 |  |  |  |  | Not Active | Not Active | 30.9% | 34.3% | 0.154 µM | 107% |  | 0.604 µM | 3.72 µM | 
CCn1nnc(C2=CCCN(C)C2)n1 | 49.2% | < 20% | < 20% | < 20% |  |  |  |  |  |  |  |  |  | 
COc1ccc(C(=O)N[C@@H]2c3cc(/N=C(\C)N(C)Cc4ccc(F)cc4)ccc3C[C@H]2O)cc1 |  |  |  |  | Not Active | Not Active | < 20% | < 20% | 0.166 µM | 93.2% |  |  |  | 
C/C(=N\c1ccc2c(c1)[C@@H](NC(=O)c1ccc(Br)cc1)[C@H](O)C2)N(C)CCc1ccc(F)cc1 |  |  |  |  | Not Active | Not Active | 20.8% | < 20% | 0.0809 µM | 68.5% |  | 0.342 µM |  | 
C/C(=N\c1ccc2c(c1)[C@@H](NC(=O)c1ccc(F)cc1)[C@H](O)C2)N(C)Cc1ccc(F)cc1 |  |  |  |  | Not Active | Not Active | 43.6% | 28.4% | 0.392 µM | 76.6% |  | 0.242 µM | 0.392 µM | 

Reference: ChEMBL document CHEMBL3616390, “Design and synthesis of N-[6-(Substituted Aminoethylideneamino)-2-Hydroxyindan-1-yl]arylamides as selective and potent muscarinic M₁ agonists” (Bioorg Med Chem Lett, 2015)
